We go through 12 molecules from ChEMBL document CHEMBL3046540, “Statistically validated QSAR study of some antagonists of the human CCR5 receptor using least square support vector machine based on the genetic algorithm and factor analysis” (Med Chem Res, 2013).

pIC50: −log10 of the molar value.

Sequence of C-C chemokine receptor type 5 (P51681 whole entry): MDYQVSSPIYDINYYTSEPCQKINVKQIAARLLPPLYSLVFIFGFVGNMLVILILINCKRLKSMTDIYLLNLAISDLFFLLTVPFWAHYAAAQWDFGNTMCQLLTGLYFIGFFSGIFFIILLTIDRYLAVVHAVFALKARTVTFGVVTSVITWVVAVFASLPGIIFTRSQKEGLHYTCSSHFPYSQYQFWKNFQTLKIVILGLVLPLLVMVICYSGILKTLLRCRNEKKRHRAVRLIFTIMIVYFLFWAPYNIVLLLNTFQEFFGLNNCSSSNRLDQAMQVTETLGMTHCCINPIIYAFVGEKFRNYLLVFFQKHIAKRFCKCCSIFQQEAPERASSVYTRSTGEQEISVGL

This assay has as its target C-C chemokine receptor type 5 (Homo sapiens, UniProt P51681). Description: Antagonist activity at Homo sapiens (human) CCR5 receptor.
For the molecule `C=CCN(C(=O)c1ccc([N+](=O)[O-])cc1)C1CCN(CCC(CN(C)S(=O)(=O)c2ccccc2)c2ccccc2)CC1` (configuration not stated), the pIC50 – broadly, the negative decadic logarithm of the IC50, by convention in mol/L – was 8.70. For `C=CCN(C(=O)Nc1ccc([N+](=O)[O-])cc1)C1CCN(CCC(CN(C)S(=O)(=O)c2ccccc2)c2ccccc2)CC1` (configuration not stated), the pIC50 is 9.12.

In turn, `CCN(C(=O)NCc1ccccc1)C1CCN(CCC(CN(C)S(=O)(=O)c2ccccc2)c2ccccc2)CC1` (configuration not stated) showed a negative logarithm of the IC50 (pIC50) of 7.00. Then `CCCN(C(=O)NC)C1CCN(CCC(CN(C)S(=O)(=O)c2ccccc2)c2ccccc2)CC1` (configuration not stated), with 6.00.

As to `CCCN(C(=O)OCc1cccc(C(N)=O)c1)C1CCN(CC[C@H](CN(C)S(=O)(=O)c2ccccc2)c2ccccc2)CC1`, the pIC50 is 9.10. For `CCN(C(=O)OC)C1CCN(CC[C@H](CN(C)S(=O)(=O)c2ccccc2)c2cccc(Cl)c2)CC1` the value was 7.40; for `CN(CC(CCN1CCC(NC(=O)NCc2ccccc2)CC1)c1ccccc1)S(=O)(=O)c1ccccc1` (configuration not stated), 8.60.

The molecule `COC(=O)NC1CCN(CC[C@H](CN(C)S(=O)(=O)c2ccccc2)c2ccccc2)CC1` gave a pIC50 of 6.00. For `CCCN(C(=O)OCc1ccc(C(N)=O)cc1)C1CCN(CC[C@H](CN(C)S(=O)(=O)c2ccccc2)c2ccccc2)CC1` the value was 8.52; for `CCCN(C(=O)OCc1ccccc1C)C1CCN(CC[C@H](CN(C)S(=O)(=O)c2ccccc2)c2ccccc2)CC1`, 8.82; for `CCCN(C(=O)OCc1ccccc1)C1CCN(CC[C@H](CN(C)S(=O)(=O)c2ccccc2)c2ccccc2)CC1`, 8.40. With `CNC(=O)NC1CCN(CCC(CN(C)S(=O)(=O)c2ccccc2)c2ccccc2)CC1` (configuration not stated), the negative-log IC50 (pIC50) is 6.92.
